Measured values: US6822146B2, “Sulfonylurea-tolerant sunflower line M7” (priority 2000, dated 2004)

How the values were obtained:
[1] = system: H89A × RHA274 (sulfonylurea-susceptible hybrid); assay: Test G control of volunteer sunflower, H89A × RHA274; type: in vivo; conditions: rated 4 weeks after application, scale 0-100
BC2-M3M11 = assay: Test G control of volunteer sunflower, BC2-M3M11; type: in vivo; conditions: rated 4 weeks after application, scale 0-100
BC2-M3M12 = assay: Test G control of volunteer sunflower, BC2-M3M12; type: in vivo; conditions: rated 4 weeks after application, scale 0-100
[2] = system: mutants originating from M11 and M12; conditions: Test G rates
Description: This test involved sulfonylurea-resistant sunflower progeny BC2-M3M11 and BC2-M3M12, derived from M11 and M12, respectively. Also, a sulfonylurea-susceptible hybrid, H89A×RHA274, was included for comparison. Plants were sprayed with formulated herbicides at the 4-leaf stage. The efficacy of the treatments on the sunflowers was visually rated 4 weeks after application, using a scale where 0 means no control of the sunflowers, 85 means sufficient efficacy level to stop plants from flowering and propagating, and 100 means a complete destruction of the mutants.
Weed control in sugar beet requires 2-3 herbicide applications per season to efficiently control weeds in this slow growing crop.

Chenopodium album = assay: Test H weed control, field plots; type: in vivo; conditions: 36 days after treatment; g a.i./ha: tribenuron-methyl 22.5, metsulfuron-methyl 6, ethametsulfuron-methyl 16, imazapyr isopropylamine salt 15, aclonifen 1200
Description: (§1) Field plots (2 m×5 m) were tilled to remove weed cover and then seeded in rows with the following weeds: Capsella bursa pastoris, Atriplex patula, Chenopodium album, Stellaria media, Mecurialis annua, Polygonum persicaria, Amaranthus retroflexus, Polygonum convolvulus, Polygonum aviculare, Viola arvensis, Matricaria inodora, Anagallis arvensis, Sinapis arvensis, Setaria viridis, Solanum nigrum and Echinochloa crusgalli. After 21 days from sowing, at which time the weeds had reached the 2- to 6-leaf stage, herbicide treatments were applied to the plots according to a complete randomized block design, with each herbicide treatment triply replicated. The herbicides were sprayed using standard flat fan nozzles moved perpendicular to the sown lines using water spray volumes of about 296 L/ha.
(§2) Assessments of weed control were made by visual inspection 36 days after herbicide treatment. A visual rating system was used based on a percentage scale from 0 to 100% compared to an adjacent untreated control plot. On this scale 0 represents no visual differences relative to an untreated control and 100 represents complete control of the given weed species.

Stellaria media = assay: Test H weed control, field plots; type: in vivo; conditions: 36 days after treatment; g a.i./ha: tribenuron-methyl 22.5, metsulfuron-methyl 6, ethametsulfuron-methyl 16, imazapyr isopropylamine salt 15, aclonifen 1200
Description: as §1, §2

Amaranthus retroflexus = assay: Test H weed control, field plots; type: in vivo; design: concentration or dose not given beside the values; conditions: 36 days after treatment; g a.i./ha: tribenuron-methyl 22.5, metsulfuron-methyl 6, ethametsulfuron-methyl 16, imazapyr isopropylamine salt 15, aclonifen 1200
Description: as §1, §2

Anagallis arvensis = assay: Test H weed control, field plots; type: in vivo; design: concentration or dose not given beside the values; conditions: 36 days after treatment; g a.i./ha: tribenuron-methyl 22.5, metsulfuron-methyl 6, ethametsulfuron-methyl 16, imazapyr isopropylamine salt 15, aclonifen 1200
Description: as §1, §2

Atriplex patula = assay: Test H weed control, field plots; type: in vivo; design: concentration or dose not given beside the values; conditions: 36 days after treatment; g a.i./ha: tribenuron-methyl 22.5, metsulfuron-methyl 6, ethametsulfuron-methyl 16, imazapyr isopropylamine salt 15, aclonifen 1200
Description: as §1, §2

Capsella bursa pastoris = assay: Test H weed control, field plots; type: in vivo; design: concentration or dose not given beside the values; conditions: 36 days after treatment; g a.i./ha: tribenuron-methyl 22.5, metsulfuron-methyl 6, ethametsulfuron-methyl 16, imazapyr isopropylamine salt 15, aclonifen 1200
Description: as §1, §2

Echinochloa crus-galli = assay: Test H weed control, field plots; type: in vivo; design: concentration or dose not given beside the values; conditions: 36 days after treatment; g a.i./ha: tribenuron-methyl 22.5, metsulfuron-methyl 6, ethametsulfuron-methyl 16, imazapyr isopropylamine salt 15, aclonifen 1200
Description: as §1, §2

Matricaria inodora = assay: Test H weed control, field plots; type: in vivo; design: concentration or dose not given beside the values; conditions: 36 days after treatment; g a.i./ha: tribenuron-methyl 22.5, metsulfuron-methyl 6, ethametsulfuron-methyl 16, imazapyr isopropylamine salt 15, aclonifen 1200
Description: as §1, §2

Mercurialis annua = assay: Test H weed control, field plots; type: in vivo; design: concentration or dose not given beside the values; conditions: 36 days after treatment; g a.i./ha: tribenuron-methyl 22.5, metsulfuron-methyl 6, ethametsulfuron-methyl 16, imazapyr isopropylamine salt 15, aclonifen 1200
Description: as §1, §2

Polygonum aviculare = assay: Test H weed control, field plots; type: in vivo; design: concentration or dose not given beside the values; conditions: 36 days after treatment; g a.i./ha: tribenuron-methyl 22.5, metsulfuron-methyl 6, ethametsulfuron-methyl 16, imazapyr isopropylamine salt 15, aclonifen 1200
Description: as §1, §2

Polygonum convolvulus = assay: Test H weed control, field plots; type: in vivo; design: concentration or dose not given beside the values; conditions: 36 days after treatment; g a.i./ha: tribenuron-methyl 22.5, metsulfuron-methyl 6, ethametsulfuron-methyl 16, imazapyr isopropylamine salt 15, aclonifen 1200
Description: as §1, §2

Polygonum persicaria = assay: Test H weed control, field plots; type: in vivo; design: concentration or dose not given beside the values; conditions: 36 days after treatment; g a.i./ha: tribenuron-methyl 22.5, metsulfuron-methyl 6, ethametsulfuron-methyl 16, imazapyr isopropylamine salt 15, aclonifen 1200
Description: as §1, §2

Setaria viridis = assay: Test H weed control, field plots; type: in vivo; design: concentration or dose not given beside the values; conditions: 36 days after treatment; g a.i./ha: tribenuron-methyl 22.5, metsulfuron-methyl 6, ethametsulfuron-methyl 16, imazapyr isopropylamine salt 15, aclonifen 1200
Description: as §1, §2

Sinapis arvensis = assay: Test H weed control, field plots; type: in vivo; design: concentration or dose not given beside the values; conditions: 36 days after treatment; g a.i./ha: tribenuron-methyl 22.5, metsulfuron-methyl 6, ethametsulfuron-methyl 16, imazapyr isopropylamine salt 15, aclonifen 1200
Description: as §1, §2

Solanum nigrum = assay: Test H weed control, field plots; type: in vivo; design: concentration or dose not given beside the values; conditions: 36 days after treatment; g a.i./ha: tribenuron-methyl 22.5, metsulfuron-methyl 6, ethametsulfuron-methyl 16, imazapyr isopropylamine salt 15, aclonifen 1200
Description: as §1, §2

Viola arvensis = assay: Test H weed control, field plots; type: in vivo; design: concentration or dose not given beside the values; conditions: 36 days after treatment; g a.i./ha: tribenuron-methyl 22.5, metsulfuron-methyl 6, ethametsulfuron-methyl 16, imazapyr isopropylamine salt 15, aclonifen 1200
Description: as §1, §2

M5M7 = assay: Test B greenhouse phytotoxicity, M5M7; type: in vivo, sunflower; conditions: M5M7; 15 g a.i./ha post-emergence 4-leaf stage
Description: (§3) A greenhouse experiment was conducted to evaluate the spectrum of tolerance of three homozygous resistant mutants to various herbicides inhibiting acetolactate synthase (ALS) as their mode of action. The inbred lines tested were the 5th generation self-pollinated maintainers, M5M7, M5M11 and M5M12, as well as the 4th generation male sterile back-crosses BC4-M5M7, BC4-M5M11 and BC4-M5M12. Treatments of formulated herbicides were applied post-emergence at the 4-leaf stage. Application rates of the test herbicides were chosen to coincide with the rates commonly used in the crops for which they are registered. The application rate of imazethapyr was chosen to match the rate recommended to control parasitic weeds in sunflowers by L. García-Torres et al., Weed Technology 1995, 9, 819-824. Wild type H89 inbred sunflower was not included in this test, because the many of the tested herbicides are known to be efficacious in controlling volunteer sunflower as a weed. Treatments were replicated twice. […] A rating of 0% phytotoxicity means no crop injury.

M5M11 = assay: Test B greenhouse phytotoxicity, M5M11; type: in vivo, sunflower; conditions: M5M11; 15 g a.i./ha post-emergence 4-leaf stage
Description: as §3

M5M12 = assay: Test B greenhouse phytotoxicity, M5M12; type: in vivo, sunflower; conditions: M5M12; 15 g a.i./ha post-emergence 4-leaf stage
Description: as §3

BC4-M5M7 = assay: Test B greenhouse phytotoxicity, BC4-M5M7; type: in vivo, sunflower; conditions: BC4-M5M7; 15 g a.i./ha post-emergence 4-leaf stage
Description: as §3

BC4-M5M11 = assay: Test B greenhouse phytotoxicity, BC4-M5M11; type: in vivo, sunflower; conditions: BC4-M5M11; 15 g a.i./ha post-emergence 4-leaf stage
Description: as §3

BC4-M5M12 = assay: Test B greenhouse phytotoxicity, BC4-M5M12; type: in vivo, sunflower; conditions: BC4-M5M12; 15 g a.i./ha post-emergence 4-leaf stage
Description: as §3

[3] = system: homozygous progeny of the three mutant sources; type: in vivo, sunflower; conditions: Test B application rates, post-emergence
Description: as §3

O=C(O)COc1ccc(Cl)cc1Cl [2,4-D, 2,4-dichlorophenoxyacetic acid]
Efficacy on H89A × RHA274 ([1]; 530 g a.i./ha): 100 | Efficacy on BC2-M3M11 (BC2-M3M11; 530 g a.i./ha): 100 | Efficacy on BC2-M3M12 (BC2-M3M12; 530 g a.i./ha): 100 | efficacy against the mutants [2]: completely-destroyed

Nc1c([N+](=O)[O-])ccc(Oc2ccccc2)c1Cl [Aclonifen, aclonifen]
weed control, visual rating: Chenopodium album (Chenopodium album): 100% | weed control, visual rating: Stellaria media (Stellaria media): 100% | weed control, visual rating: Amaranthus retroflexus (Amaranthus retroflexus): 40% | weed control, visual rating: Anagallis arvensis (Anagallis arvensis): 100% | weed control, visual rating: Atriplex patula (Atriplex patula): 0% | weed control, visual rating: Capsella bursa pastoris (Capsella bursa pastoris): 100% | weed control, visual rating: Echinochloa crus-galli (Echinochloa crus-galli): 0% | weed control, visual rating: Matricaria inodora (Matricaria inodora): 0% | weed control, visual rating: Mercurialis annua (Mercurialis annua): 50% | weed control, visual rating: Polygonum aviculare (Polygonum aviculare): 30% | weed control, visual rating: Polygonum convolvulus (Polygonum convolvulus): 23% | weed control, visual rating: Polygonum persicaria (Polygonum persicaria): 70% | weed control, visual rating: Setaria viridis (Setaria viridis): 40% | weed control, visual rating: Sinapis arvensis (Sinapis arvensis): 100% | weed control, visual rating: Solanum nigrum (Solanum nigrum): 20% | weed control, visual rating: Viola arvensis (Viola arvensis): 57%

CCOc1nc(NC)nc(NC(=O)NS(=O)(=O)c2ccccc2C(=O)OC)n1 [Ethametsulfuron-methyl, ethametsulfuron-methyl]
Maximum Phytotoxicity (M5M7): 10% | Maximum Phytotoxicity (M5M11): 0% | Maximum Phytotoxicity (M5M12): 0% | Maximum Phytotoxicity (BC4-M5M7): 5% | Maximum Phytotoxicity (BC4-M5M11): 10% | Maximum Phytotoxicity (BC4-M5M12): 0% | tolerance of the mutants [3]: extremely resistant | weed control, visual rating: Chenopodium album (Chenopodium album): 0% | weed control, visual rating: Stellaria media (Stellaria media): 79% | weed control, visual rating: Amaranthus retroflexus (Amaranthus retroflexus): 82% | weed control, visual rating: Anagallis arvensis (Anagallis arvensis): 100% | weed control, visual rating: Atriplex patula (Atriplex patula): 0% | weed control, visual rating: Capsella bursa pastoris (Capsella bursa pastoris): 100% | weed control, visual rating: Echinochloa crus-galli (Echinochloa crus-galli): 33% | weed control, visual rating: Matricaria inodora (Matricaria inodora): 67% | weed control, visual rating: Mercurialis annua (Mercurialis annua): 0% | weed control, visual rating: Polygonum aviculare (Polygonum aviculare): 0% | weed control, visual rating: Polygonum convolvulus (Polygonum convolvulus): 0% | weed control, visual rating: Polygonum persicaria (Polygonum persicaria): 0% | weed control, visual rating: Setaria viridis (Setaria viridis): 0% | weed control, visual rating: Sinapis arvensis (Sinapis arvensis): 97% | weed control, visual rating: Solanum nigrum (Solanum nigrum): 70% | weed control, visual rating: Viola arvensis (Viola arvensis): 0%

COC(=O)Nc1cccc(OC(=O)Nc2cccc(C)c2)c1 [Phenmedipham]
Efficacy on H89A × RHA274 ([1]; 240 g a.i./ha): 0 | Efficacy on BC2-M3M11 (BC2-M3M11; 240 g a.i./ha): 0 | Efficacy on BC2-M3M12 (BC2-M3M12; 240 g a.i./ha): 7 | control of sulfonylurea-susceptible or sulfonylurea-resistant volunteer sunflowers ([2]; phenmedipham alone or combined with triflusulfuron-methyl): ineffective alone
